Results from patent US20130165471A1, “2-SUBSTITUTED-THIENOQUINOLONES AND RELATED COMPOUNDS AS ANTI-INFECTIVE AGENTS” (Achillion Pharmaceuticals Inc., priority 2011, published 2013).
Converted amounts (≈) assume the structure as drawn.

Columns and labels:
[1] = system: Hep2; test: Cytotoxicity, cell viability staining with Alamar Blue; type: cell-based, human; design: unit not given here; details: Hep2 cells
Method: (§1) The preparation of compounds listed in Table I can be carried out under conditions analogous to those described in the examples above. Those of skill in the art will recognize routine changes in reaction conditions and starting materials needed to produce the listed compounds. For example, compound 5 in Table I, is prepared by the method shown above, except tert-butyl (1-(pyrrolidin-3-yl)ethyl)carbamate, prepared by the method shown in Schoeder, et al., J. Heterocyclic Chem., 29: 1481-1498 (1992), is used as the amine starting material. Compound activity was evaluated in a standard minimal inhibitory concentration assay such as the assay provided in Example 4. Compound cytotoxicity is determined using a standard assay of cytotoxicity such as the assay provided in Example 5. Compounds 10, 14, and 20 of Table I are provided as comparative examples.
To determine whether the microcidal effect observed against S. aureus and E. coli is specific to bacterial cells, compounds are screened for cell viability effects on several human cell types.
Optimal cell density is first determined by plating cells in a 96-well plate standard sterile tissue culture plates in 100 μl media, 10% FBS at six cell densities from 500 cells/well to 15,000 cells/well. A cell free well containing only media is used as a control. Cells are incubated at 37° C. in a 5% CO2 incubator for 24 hours. 10% culture volume (10 ul) of Alamar Blue (Biosource, DAL1100, 100 mL) is then added. Cells are incubated at 37° C. in a 5% CO2 incubator and read in a Victor V plate reader, 544 nm excitation, 590 nm emission, at 3, 4, and 24 hours after the addition of Alamar Blue. The cell number vs. change in fluorescence is plotted to determine linearity of signal vs. cell number. The optimal density varies between 500-15,000 cells/well depending on the specific cell type. The optimal density is selected based on the highest number of cells that is still in the linear response range.
Cells are plated at optimal cell density in a standard sterile tissue culture 96 well plate, and incubated at 37° C., O/N in a 5% CO2 incubator. 12 to 48 hours post-plating media is removed. The cells are washed 1 or 2 times with 1×PBS and replaced with fresh media containing the test compound in 1% DMSO. 24 to 72 hours after addition of compound, the media is removed, and the cells washed 1 to 2 times with 1×PBS. Fresh media containing 1/10 volume of Alamar Blue is then added. Plates are incubated 4 hours at 37° C. in a 5% CO2 incubator and read in a Victor V plate reader, 544 nm excitation, 590 nm emission.
Compounds are diluted to 20 micromolar in 1% DMSO and media and screened in duplicate to obtain single concentration cytotoxicity data. Eight concentration points from 0.78 micromolar to 100 micromolar, run in duplicate, are used to determine cytotoxicity CC50 values. Cells with 1% DMSO and media are used as a negative control, compounds having a known CC50 against a particular cell type are used as positive controls.
The change in fluorescence vs. concentration of test compound is plotted to determine the cytotoxicity of the compound.

[2] = system: S. aureus ATCC 29213; test: Minimum inhibitory concentration (MIC) assay, MSSA; type: cell-based; details: Staphylococcus aureus, broth microdilution
Method: as §1
(§2) The antimicrobial activity of the compounds of the invention may be evaluated by a number of methods, including the following visual minimum inhibitory concentration (MIC) assay. This assay determines the minimum concentration of compound required to inhibit growth of a bacterial strain.
(§3) Whole-cell antibacterial activity is determined by broth microdilution using conditions recommended by the NCCLS (see National Committee for Clinical Laboratory Standards. 2001. Performance standards for antimicrobial susceptibility testing: 11th informational supplement. Vol. 21, no. 1, M100-S11. National Committee for Clinical Laboratory Standards, Wayne, Pa.). Test compounds are dissolved in DMSO and diluted 1:50 in Mueller-Hinton II broth (Becton-Dickinson) to produce a 256 μg/ml stock solution. In a 96-well microtiter plate, the compound solution is serially two-fold diluted in Mueller-Hinton II broth. After the compounds are diluted, a 50 μl aliquot of the test organism (˜1×10^6 cfu/mL) is added to each well of the microtiter plate. The final test concentrations range from 0.125-128 μg/mL. Inoculated plates are incubated in ambient air at 37° C. for 18 to 24 hours. The organisms selected for testing included laboratory strains S. aureus ATCC 29213 and E. coli ATCC 25922 (strains purchased from American Type Culture Collection, Manassas, Va.) m, S. aureus FQR700699, and Paeruginosa 27853. The minimum inhibitory concentration (MIC) is determined as the lowest concentration of compound that inhibited visible growth of the test organism.

[3] = system: fluoroquinolone-resistant S. aureus ATCC 700699; test: Minimum inhibitory concentration (MIC) assay, MRSA; type: cell-based; details: Staphylococcus aureus, broth microdilution
Method: as §1, §2, §3

SMILES | MIC [2] [µg/mL] | MIC [3] [µg/mL] | Cytotoxicity Hep2 [1]
COc1c(N2CCCC(CN)C2)c(F)cc2c(=O)c3c(O)c(C(N)=O)sc3n(C3CC3)c12 (stereo not drawn) [Compound 5, 7-(3-(aminomethyl)piperidin-1-yl)-9-cyclopropyl-6-fluoro-3-hydroxy-8-methoxy-4-oxo-4,9-dihydrothieno[2,3-b]quinoline-2-carboxamide] | 0.5 (≈ 1.09 µM) | 2 (≈ 4.34 µM) | 30
COc1c(N2CC[C@@H](CN)C2)c(F)cc2c(=O)c3c(O)csc3n(C3CC3)c12 [Compound 10, (S)-7-(3-(aminomethyl)pyrrolidin-1-yl)-9-cyclopropyl-6-fluoro-3-hydroxy-8-methoxythieno[2,3-b] quinolin-4(9H)-one] | 4 (≈ 9.91 µM) | – | 24
COc1c(N2CC[C@@H](CNC(C)=O)C2)c(F)cc2c(=O)c3c(n(C4CC4)c12)SCC3=O [Compound 14, (S)-N-((1-(9-cyclopropyl-6-fluoro-8-methoxy-3,4-dioxo-2,3,4,9-tetrahydrothieno [2,3-b]quinolin-7-yl)pyrrolidin-3-yl)methyl) acetamide] | 32 (≈ 71.8 µM) | > 64 | –
COc1c(N2CC[C@@H](CNC(=O)CN)C2)c(F)cc2c(=O)c3c(O)c(C(C)=O)sc3n(C3CC3)c12 [Compound 15, (S)-N-((1-(2-acetyl-9-cyclopropyl-6-fluoro-3-hydroxy-8-methoxy-4-oxo-4,9-dihydrothieno [2,3-b]quinolin-7-yl)pyrrolidin-3-yl)methyl)-2-aminoacetamide] | 0.5 (≈ 0.995 µM) | 1 (≈ 1.99 µM) | –
COc1c(N2CC[C@@H](CNS(=O)(=O)c3cc(F)ccc3C)C2)c(F)cc2c(=O)c3c(O)c(C(C)=O)sc3n(C3CC3)c12 [Compound 16, (R)-N-((1-(2-acetyl-9-cyclopropyl-6-fluoro-3-hydroxy-8-methoxy-4-oxo-4,9-dihydrothieno [2,3-b]quinolin-7-yl)pyrrolidin-3-yl)methyl)-5-fluoro-2-methylbenzenesulfonamide] | 32 (≈ 51.8 µM) | > 64 | –
COc1c(N2CC[C@@H](CNS(=O)(=O)c3cc(F)ccc3C)C2)c(F)cc2c(=O)c3c(OS(=O)(=O)c4cc(F)ccc4C)c(C(C)=O)sc3n(C3CC3)c12 [Compound 17, (R)-2-acetyl--cyclopropyl-6-fluoro-7-(3-((5-fluoro-2-methylphenylsulfonamido)methyl)pyrrolidin-1-yl)-8-methoxy-4-oxo-4,9-dihydrothieno[2,3-b] quinolin-3-yl 5-fluoro-2-methylbenzenesulfonate] | > 64 | > 64 | –
COc1c(N2CC[C@@H]([C@H](C)N)C2)c(F)cc2c(=O)c3c(n(C4CC4)c12)SCC3=O [Compound 20, 7-((R)-3-((S)-1-aminoethyl)pyrrolidin-1-yl)-9-cyclopropyl-6-fluoro-8-methoxythieno[2,3-b] quinoline-3,4(2H,9H)-dione] | 4 (≈ 9.58 µM) | 16 (≈ 38.3 µM) | –
COc1c(N2CC[C@@H]([C@H](C)NC(=O)OC(C)(C)C)C2)c(F)cc2c(=O)c3c(O)c(C(C)=O)sc3n(C3CC3)c12 [Compound 22, tert-butyl ((S)-1-((R)-1-(2-acetyl-9-cyclopropyl-6-fluoro-3-hydroxy-8-methoxy-4-oxo-4,9-dihydrothieno[2,3-b]quinolin-7-yl)pyrrolidin-3-yl)ethyl)carbamate] | > 64 | > 64 | –

These reach a lower MIC [2]. Values come first.

MIC [2] [µg/mL] | MIC [3] [µg/mL] | SMILES | Cytotoxicity Hep2 [1]
0.25 (≈ 0.511 µM) | 0.5 (≈ 1.02 µM) | COc1c(N2CCCC(=C(F)CN)C2)c(F)cc2c(=O)c3c(O)c(C(C)=O)sc3n(C3CC3)c12 [Compound 6, 2-acetyl-7-(3-(2-amino-1-fluoroethylidene)piperidin-1-yl)-9-cyclopropyl-6-fluoro-3-hydroxy-8-methoxythieno [2,3-b]quinolin-4(9H)-one] | –
0.13 (≈ 0.301 µM) | 0.25 (≈ 0.579 µM) | COc1c(N2CC[C@H](N)C2)c(F)cc2c(=O)c3c(O)c(C(C)=O)sc3n(C3CC3)c12 [Compound 7, (S)-2-acetyl-7-(3-aminopyrrolidin-1-yl)-9-cyclopropyl-6-fluoro-3-hydroxy-8-methoxythieno [2,3-b]quinolin-4(9H)-one] | 35
0.03 (≈ 0.0653 µM) | 0.13 (≈ 0.283 µM) | COc1c(N2CC[C@@H]([C@H](C)N)C2)c(F)cc2c(=O)c3c(O)c(C(C)=O)sc3n(C3CC3)c12 [Compound 8, 2-acetyl-7-((R)-3-((S)-1-aminoethyl)pyrrolidin-1-yl)-9-cyclopropyl-6-fluoro-3-hydroxy-8-methoxythieno [2,3-b]quinolin-4(9H)-one] | 9
0.25 (≈ 0.544 µM) | 1 (≈ 2.18 µM) | COc1c(N2CCC(CN)CC2)c(F)cc2c(=O)c3c(O)c(C(C)=O)sc3n(C3CC3)c12 [Compound 9, 2-acetyl-7-(4-(aminomethyl)piperidin-1-yl)-9-cyclopropyl-6-fluoro-3-hydroxy-8-methoxythieno[2,3-b] quinolin-4(9H)-one] | 42
0.13 (≈ 0.267 µM) | 0.5 (≈ 1.03 µM) | COc1c(N2CC[C@@H](CNC(C)=O)C2)c(F)cc2c(=O)c3c(O)c(C(C)=O)sc3n(C3CC3)c12 [Compound 11, (S)-N-((1-(2-acetyl-9-cyclopropyl-6-fluoro-3-hydroxy-8-methoxy-4-oxo-4,9-dihydrothieno [2,3-b]quinolin-7-yl)pyrrolidin-3-yl)methyl) acetamide] | 60
0.13 (≈ 0.292 µM) | 0.25 (≈ 0.561 µM) | COc1c(N2CC[C@H](CN)C2)c(F)cc2c(=O)c3c(O)c(C(C)=O)sc3n(C3CC3)c12 [Compound 13, (R)-2-acetyl-7-(3-(aminomethyl)pyrrolidin-1-yl)-9-cyclopropyl-6-fluoro-3-hydroxy-8-methoxythieno[2,3-b] quinolin-4(9H)-one] | –
0.25 (≈ 0.528 µM) | 1 (≈ 2.11 µM) | COc1c(N2CC[C@H](NC(C)=O)C2)c(F)cc2c(=O)c3c(O)c(C(C)=O)sc3n(C3CC3)c12 [Compound 18, (S)-N-(1-(2-acetyl-9-cyclopropyl-6-fluoro-3-hydroxy-8-methoxy-4-oxo-4,9-dihydrothieno [2,3-b]quinolin-7-yl)pyrrolidin-3-yl)acetamide] | –
0.25 (≈ 0.498 µM) | 0.5 (≈ 0.997 µM) | COc1c(N2CC[C@@H]([C@H](C)NC(C)=O)C2)c(F)cc2c(=O)c3c(O)c(C(C)=O)sc3n(C3CC3)c12 [Compound 19, N-((S)-1-((R)-1-(2-acetyl-9-cyclopropyl-6-fluoro-3-hydroxy-8-methoxy-4-oxo-4,9-dihydrothieno[2,3-b]quinolin-7-yl)pyrrolidin-3-yl)ethyl) acetamide] | –
0.13 (≈ 0.283 µM) | 1 (≈ 2.18 µM) | COc1c(N2CC[C@@H]([C@@H](C)N)C2)c(F)cc2c(=O)c3c(O)c(C(C)=O)sc3n(C3CC3)c12 [Compound 21, 2-acetyl-7-((R)-3-((R)-1-aminoethyl)pyrrolidin-1-yl)-9-cyclopropyl-6-fluoro-3-hydroxy-8-methoxythieno[2,3-b] quinolin-4(9H)-one] | –
